In patent US20040077654A1, “Aryl piperidine and piperazine derivatives as inducers of ldl-receptor expression” (priority 2003, published 2004):

Tested on: not given
Assay: not given
Details: not given

| SMILES | melting point |
| --- | --- |
| CCOc1cc(C)ccc1C1CCN(CCCCC(=O)Nc2ccc(-c3ccc(C(F)(F)F)cc3)cc2)CC1 [Example 24, 5-[4-(2-Ethoxy-4-methyl-phenyl)-piperidin-1-yl]-pentanoic acid (4′-trifluoromethyl-biphenyl-4-yl)-amide] | 178 °C |
| CCOc1cc(C)ccc1C1CCN(CCCCNC(=O)c2ccc3oc(-c4ccc(C(F)(F)F)cc4)cc3c2)CC1 [Example 29, 2-(4-Trifluoromethyl-phenyl)-benzofuran-5-carboxylic Acid {4-[4-(2-ethoxy-4-methyl-phenyl)-piperidin-1-yl]-butyl}-amide] | 200 °C |
| CCOc1cc(C)ccc1C1CCN(CCCCNC(=O)c2ccc(C=Cc3ccc(C(F)(F)F)cc3)cc2)CC1 [Example 33, N-{4-[4-(2-Ethoxy-4-methyl-phenyl)-piperidin-1-yl]-butyl}-4-[2-(4-trifluoromethylphenyl)-vinyl]-benzamide] | 210 °C |
| CCOc1cc(C)ccc1C1CCN(CCCCNC(=O)c2ccc(OCc3ccc(C(F)(F)F)cc3)cc2)CC1 [Example 34, N-{4-[4-(2-Ethoxy-4-methyl-phenyl)-piperidin-1-yl]-butyl}4-(4-trifluoromethyl-benzyloxy)-benzamide] | 180 to 182 °C |
| CCOc1ccc(CC2CCN(CCCCNC(=O)c3ccc(-c4ccc(C(F)(F)F)cc4)cc3)CC2)c(OCC)c1 [Example 38, 4′-trifluoromethyl-biphenyl-4-carboxylic acid {4-[4-(2,4-diethoxy-benzyl)-piperidin-1-yl]-butyl}amide] | 136 to 137 °C |
| CCOc1cc(C)ccc1C1CCN(CCCCNC(=O)c2ccc3c(c2)cc(-c2ccc(Cl)cc2)n3C)CC1 [Example 28, 2-(4-Chloro-phenyl)-1-methyl-1H-indole-5-carboxylic Acid {4-[4-(2-ethoxy-4-methyl-phenyl)-piperidin-1-yl]-butyl}-amide] | 174 to 175 °C |
| CCOc1cc(C)ccc1C1CCN(CCCCNS(=O)(=O)c2ccc(-c3ccc(C(F)(F)F)cc3)cc2)CC1.Cl | 188 to 190 °C |
| COc1cc(C(C)C)ccc1C1CCN(CCCCNC(=O)c2sc(-c3ccc(C(F)(F)F)cc3)nc2C)CC1 [Example 27, 4-Methyl-2-(4-trifluoromethyl-phenyl)-thiazole-5-carboxylic acid {4-[4-(4-isopropyl-2-methoxy-phenyl)-piperidin-1-yl]-butyl}-amide] | 170 °C |
| CCOc1cc(C)ccc1NC1CCN(CCCCNC(=O)c2ccc(-c3ccc(C(F)(F)F)cc3)cc2)CC1 [Example 19, 4′-Trifluoromethyl-biphenyl-4-carboxylic acid {4-[4-(2-ethoxy-4-methyl-phenylamino)-piperidin-1-yl]-butyl}-amide] | 162 °C |
| CCOc1cc(C)ccc1N(C1CCN(CCCCNC(=O)c2ccc(-c3ccc(C(F)(F)F)cc3)cc2)CC1)S(=O)(=O)c1ccccc1 [Example 20, 4′-Trifluoromethyl-biphenyl-4-carboxylic Acid (4-{4-[benzenesulfonyl-(2-ethoxy-4-methyl-phenyl)-amino]-piperidin-1-yl}butyl)-amide] | 110 °C |

More lines, now with the values ahead:

| melting point | SMILES |
| --- | --- |
| 254 °C | CCOc1cc(C)ccc1C1CCN(CCCCNC(=O)c2ccc(NC(=O)c3ccc(Cl)cc3)cc2)CC1 [Example 2, 4-(4-chloro-benzoylamino)-N-{4-[4-(2-ethoxy-4-methyl-phenyl)-piperidin-1-yl]-butyl}-benzamide] |
| 241 °C | COc1cc(C(C)C)ccc1C1CCN(CCCCNC(=O)c2ccc(NC(=O)c3ccc(Cl)cc3)cc2)CC1 [Example 5, 4-(4-chloro-benzoylamino)-N-{4-[4-(4-isopropyl-2-methoxy-phenyl)-piperidin-1-yl]-butyl}-benzamide] |
| 285 °C | O=C(NCCCCN1CCC(c2ccc3c(c2)CCCC3)CC1)c1ccc(NC(=O)c2ccc(Cl)cc2)cc1 [Example 10, 4-(4-chloro-benzoylamino)-N-{4-[4-(5,6,7,8-tetrahydro-naphthalen-2-yl)-piperidin-1-yl]-butyl}-benzamide] |
| 238 to 248 °C | O=C(NCCCCN1CCC(c2ccc3c(c2)OCO3)CC1)c1ccc(NC(=O)c2ccc(Cl)cc2)cc1 [Example 8, 4-(4-chloro-benzoylamino)-N-[4-(4-benzo[1,3]dioxol-5-yl-piperidin-1-yl]-butyl}-benzamide] |
| 264 °C | O=C(NCCCCN1CCC(c2cccc3ccccc23)CC1)c1ccc(NC(=O)c2ccc(Cl)cc2)cc1 [Example 11, 4-(4-chloro-benzoylamino)-N-[4-(4-naphthalen-1-yl-piperidin-1-yl]-butyl}-benzamide] |
| 227 °C | COc1cc(C)ccc1N1CCN(CCCCNC(=O)c2ccc(NC(=O)c3ccc(Cl)cc3)cc2)CC1.Cl (hydrate or solvate) |
| 191 to 192 °C | CSc1ccccc1C1CCN(CCCCNC(=O)c2ccc(-c3ccc(C(F)(F)F)cc3)cc2)CC1 [Example 13, 4′-Trifluoromethyl-biphenyl-4-carboxylic acid {4[4-(2-methylsulfanyl-phenyl)-piperidin-1-yl]-butyl}-amide] |
| 242 °C | CCOc1cc(C(C)C)ccc1C1CCN(CCCCNC(=O)c2ccc(NC(=O)c3ccc(Cl)cc3)cc2)CC1 [Example 6, 4-(4-chloro-benzoylamino)-N-{4-[4-(2-ethoxy-4-isopropyl-phenyl)-piperidin-1-yl]-butyl}-benzamide] |
| 264 °C | O=C(NCCCCN1CCC(c2csc3ccccc23)CC1)c1ccc(-c2ccc(C(F)(F)F)cc2)cc1 [Example 16, 4′-Trifluoromethyl-biphenyl-4-carboxylic acid [4-(4-benzo[b]thiophen-3-yl-piperidin-1-yl)-butyl]-amide] |
| 205 to 206 °C | Cn1cc(C2CCN(CCCCNC(=O)c3ccc(-c4ccc(C(F)(F)F)cc4)cc3)CC2)c2ccccc21 [Example 14, 4′-Trifluoromethyl-biphenyl-4-carboxylic acid {4-[4-(1−methyl-1H-indol-3-yl)-piperidin-1-yl]-butyl}-amide] |
| 235 °C | CCc1ccc(C2CCN(CCCCNC(=O)c3ccc(NC(=O)c4ccc(Cl)cc4)cc3)CC2)c(OC)c1 [Example 4, 4-(4-chloro-benzoylamino)-N-{4-[4-(4-ethyl-2-methoxy-phenyl)-piperidin-1-yl]-butyl}-benzamide] |
| 180 °C | Cn1cc(C2CCN(CCCCNC(=O)c3ccc(-c4ccc(C#N)cc4)cc3)CC2)c2ccccc21 [Example 40, 4′-Cyano-biphenyl-4-carboxylic acid {4-[4-(1-methyl-1H-indol-3-yl)-piperidin-1-yl]-butyl}-amide] |
| 270 °C | O=C(NCCCCN1CCC(c2ccc3ccccc3c2)CC1)c1ccc(NC(=O)c2ccc(Cl)cc2)cc1 [Example 9, 4-(4-chloro-benzoylamino)-N-[4-(4-naphthalen-2-yl-piperidin-1-yl]-butyl}-benzamide] |
| 238 °C | COc1ccc(C2CCN(CCCCNC(=O)c3ccc(NC(=O)c4ccc(Cl)cc4)cc3)CC2)c(OC)c1.Cl |
| 145 to 158 °C | CCOc1cc(C)ccc1C1CCN(CCCCNC(=O)c2ccc3oc(-c4ccc(Cl)cc4)cc3c2)CC1 [Example 30, 2-(4-Chloro-phenyl)-benzofuran-5-carboxylic acid {4-[4-(2-ethoxy-4-methylphenyl)-piperidin-1-yl]-butyl}-amide] |
| 250 °C | CCOc1cc(CC)ccc1C1CCN(CCCCNC(=O)c2ccc(NC(=O)c3ccc(Cl)cc3)cc2)CC1 [Example 3, 4-(4-chloro-benzoylamino)-N-{4-[4-(2-ethoxy-4-ethyl-phenyl)-piperidin-1-yl]-butyl}-benzamide] |

Tested on: LDL-r promoter
Assay: LDL-r promoter luciferase reporter gene assay in stably transfected HepG2 cells
Assay type: cell-based, human
Details: HepG2 cells with LDL-r promoter/luciferase construct; 24 hours incubation in RPMI with 2% lipoprotein-deficient serum; induction of luciferase activity; read-out: In vitro (IC50)
Procedure: The ability of the compounds of the invention to induce LDL-r expression by human hepatocytes in vitro is determined using a human hepatocarcinoma cell line, Hep G2, as a model system. A reporter gene assay using the LDL-R promotor in front of the Luciferase reporter gene is used as a primary screen.
HepG2 cells, stably transfected with a construct comprising the LDL-r promoter and the luciferase reporter gene, were seeded at 50.000 cells/well in 96 well plates. After 1 day, cells were incubated with compounds for 24 hours in RPMI medium containing 2% of lipoprotein-deficient serum. Compounds were tested from 10^−6M to 10^−9M. Cell lysates were prepared and the luciferase activity was measured by the luciferase assay system (Promega). Induction of luciferase activity was calculated taking untreated cells as control and ED50 of each compounds was determinated compared to the ED50 of an internal standart.

| EC50 | SMILES |
| --- | --- |
| 13 nM | O=C(NCCCCN1CCC(c2ccc3c(c2OCC2CC2)CCCC3)CC1)c1ccc2oc(-c3ccc(C(F)(F)F)nc3)cc2c1 [Example 32, 2-(6-Trifluoromethyl-pyridin-3-yl)-benzofuran-5-carboxylic acid {4-[4-(1-cyclopropylmethoxy-5,6,7,8-tetrahydronaphtalen-2-yl)-piperidin-1-yl]-butyl}-amide] |
| 20 nM | O=C(NCCCCN1CCC(c2ccc3c(c2OCC2CC2)CCCC3)CC1)c1ccc2oc(-c3ccc(Cl)c(Cl)c3)cc2c1 [Example 31, 2-(3,4-Dichloro-phenyl)-benzofuran-5-carboxylic acid {4-[4-(1-cyclopropylmethoxy-5,6,7,8-tetrahydro-naphtalen-2-yl)-piperidin-1-yl]-butyl}-amide] |
| 4 nM | Cc1cc(C2CCN(CCCCNC(=O)c3ccc(-c4ccc(C(F)(F)F)cc4)cc3)CC2)c(C)cc1OCc1ccccn1 [Example 7] |

| SMILES | EC50 |
| --- | --- |
| COc1c(C2CCN(CCCCOc3ccc(-c4ccc(C#N)cc4)cc3)CC2)ccc2ccccc12 [Example 26, 4′-{4-[4-(1-Methoxy-naphtalen-2-yl)-piperidin-1-yl]-butoxy}-biphenyl-4-carbonitrile] | 1 nM |

Same assay, conditions: Homo sapiens; HepG2 cells with LDL-r promoter/luciferase construct; 24 hours incubation in RPMI with 2% lipoprotein-deficient serum; induction of luciferase activity; read-out: In vitro (IC50)

| EC50 | SMILES |
| --- | --- |
| 30 nM | CCOc1cc(C)ccc1C1CCN(CCCCNC(=O)c2ccc(C=Cc3ccc(C(F)(F)F)cc3)cc2)CC1 [Example 33, N-{4-[4-(2-Ethoxy-4-methyl-phenyl)-piperidin-1-yl]-butyl}-4-[2-(4-trifluoromethylphenyl)-vinyl]-benzamide] |
| 10 nM | Cn1cc(C2CCN(CCCCNC(=O)c3ccc(-c4ccc(C#N)cc4)cc3)CC2)c2ccccc21 [Example 40, 4′-Cyano-biphenyl-4-carboxylic acid {4-[4-(1-methyl-1H-indol-3-yl)-piperidin-1-yl]-butyl}-amide] |
| 117 nM | CCOc1cc(C)ccc1N(C1CCN(CCCCNC(=O)c2ccc(-c3ccc(C(F)(F)F)cc3)cc2)CC1)S(=O)(=O)c1ccccc1 [Example 20, 4′-Trifluoromethyl-biphenyl-4-carboxylic Acid (4-{4-[benzenesulfonyl-(2-ethoxy-4-methyl-phenyl)-amino]-piperidin-1-yl}butyl)-amide] |
